Test results taken from US5563142A, “Diaromatic substituted compounds as anti-HIV-1 agents” (The Upjohn Company, priority 1994, dated 1996).
Counter-ions that a name gives are not always drawn. Like-named read-outs stand apart in the source and are kept apart here.

What was measured:
[1] = test system: HIV in primary human peripheral blood lymphocytes; experiment: Primary PBL assay: inhibition of viral replication (p24 & RNA); type: cell-based; settings: primary human lymphocytes infected with HIV, days three and four, read-out: PBL INHIBITION OF VIRAL REPLICATION (p24 & RNA) ED50
Procedure: ^3 The utility of the compounds of the invention is further
infection in primary peripheral blood lymphocytes (primary PBL assay). Th
primary PBL assay offers the following advantages:
(a) The assays are performed with primary human lymphocytes. Thereby,
undesired testing of transformed cell lines is avoided in which host cell
and virus may have undergone processes of mutual adaptation. Performance
of cell culture in serum containing media closely mimics the in vivo
situation. (b) The primary PBL assay distinguishes between true antiviral
effect which is due to the drug and cytostatic/cytotoxic reactions. (c)
Viral replication is precisely followed by kinetic measurement of viral
nucleic acids and proteins. (d) Nucleic acids (total HIVRNA intra and
extracellular) and protein (secreted p24) are measured in parallel which
permits one to differentiate between the compound's effect on virus
replication and on the expression of viral proteins. This leads to
additional information regarding the efficacy of the test compound. (e)
Tolerance of the cell culture against low amounts of organic solvents als
permits the investigation of hydrophobic substances. (f) The dose of the
drug causing half maximal suppression of virus replication is determined.
(g) The screening system is standardized and automated to a high degree.
The primary PBL assay uses the following procedure:
Effects of the compounds of the invention on cell proliferation are determined by lymphocyte proliferation assays. Starting with a 100 micromolar solution, the compound is serially diluted 10 fold. One tenth of the concentration of a compound causing half maximal inhibition of cellular proliferation is employed for all subsequent testing.
Peripheral human lymphocytes are isolated by density gradient centrifugation. After stimulation by mitogen the cells are infected with a standardized preparation of HIV. Subsequently, the infected cells are cultured in the presence of the drug for four days. Individual cultures are established to measure viral replication three and four days following infection. Untreated cells and AZT-treated cells are included as controls in parallel with the drugs under investigation.
The amount of viral core protein p24 synthesized and release by the infected cells is determined in the supernatant by the capture-ELISA technique on days three and four. By comparing with a standard preparation, the amount of protein produced by the virus infected cells is quantified.
The total amount of viral RNA synthesized by the infected lymphocytes is determined by a special nucleic acid hybridization on days three and four of culture. By including a standard preparation of HIV-RNA the amount of synthesized RNA is quantified.
In addition, viability of HIV-infected cells is determined in parallel with assays for viral p24 and RNA. In order to evaluate the half maximal antiviral effect of the drug, a concentration dependency of the drug action is measured.
Numerous examples of the compounds of the invention are assayed according to this procedure. The anti-HIV activity, as measured by the inhibition of the release of core p24 protein in HIV infected human lymphocytes, is used to calculate ED50 -antiviral (the concentration required to give a 50% reduction in p24 synthesis).

[2] = target: T1, viral reverse transcriptase (Human immunodeficiency virus type 1 group M subtype B, UniProt P04585); experiment: Viral reverse transcriptase inhibition, cell free assay; type: biochemical, human immunodeficiency virus (HIV-1)
T1 construct: Viral reverse transcriptase is found in extracts from bacterial clones; made in house; host or cells: Escherichia coli (extracts of bacterial clones, by the procedure of Larder et al., EMBO J. 6:3133-3137, 1987)
Description: The utility of the diaromatic substituted piperazines (III), the anti-AIDS piperazines (IV) and the indoles (V) of this invention can be determined by their ability to inhibit viral reverse transcriptase, an enzyme essential for human immunodeficiency virus replication. This enzyme has characteristics which differentiate it from other known cellular polymerases and it is a unique enzyme which is not found in uninfected cells. Viral reverse transcriptase is found in extracts from bacterial clones prepared according to the procedure described in AIDS Virus Reverse Transcriptase defined by high level expression in Escherichia coli, EMBO J. 6:3133-3137 (1987). Inhibition of this enzyme is determined in a cell free assay which measures the level of radioactive precursors incorporated into DNA. Extracts prepared according to the procedure of Science, 1125-1129 (1981) are incubated in a mixture of inhibitor, 20 mM dithiothreitol, 60 mM sodium chloride, 0.05% NP-40, 10 mM magnesium chloride, 50 mM Tris pH 8.3, 10 μM [^35 S]-labeled deoxynuleoside-5'-triphosphate, 10 μg/ml RNA template (poly rC or poly rG) and 5 μg/ml DNA primer (oligo dG or oligo dT) for 30 minutes at 37° C. Incorporation of radio-labeled percursor is determined by spotting aliquots of the reaction mixture on DE81 paper, washing the papers to remove unincorporated percursor, drying and determining counts. The results (IC50 means the concentration, in μM of drug, required to inhibit the reverse transcriptase activity to the extent of 50%) of various assay(s) are combined and reported as % inhibition and IC50 (calculated).
^1 Viral reverse transcriptase is found in extracts from bacterial
clones prepared according to the procedure described by Larder, B.,
Purifoy D., Powell, K. and Darby, G., AIDS virus reverse transcriptase
defined by high level expression in Escherichia coli., EMBO J. 6,
3133-3137 (1987). Inhibition of this enzyme is determined in a cell free
assay which measures the level of radioactive precursors incorporated int
DNA. Extracts prepared according to the procedure of Kleid, D. G., et
al., Science, 1125-1129 (1981) are incubated in a mixture of inhibitor, 2
mM dithiothreitol, 60 mM sodium chloride, 0.05% NP40, 10 mM magnesium
chloride, 50 mM Tris pH 8.3, 10 μM [^35 Slabeled
deoxynucleoside5triphosphate, 10 μg/ml RNA template (poly rC or poly
rG) and 5 μg/ml DNA primer (oligo dG or oligo dT) for 15 minutes at
37°. Incorporation of radio labeled precursor is determined by
harvesting the trichloroacetic acid precipitated reaction mixtures on
glass fiber filters, drying, and determining counts. The results of
various assays are combined and reported as % inhibition at a 100 μM

[3] = Human immunodeficiency virus 1, Lymphocyte
[4] = read-out: RT % INHIBITION (100 μM), 100 μM, poly rC or poly rG template

Structure (SMILES)	EC50 [1, 3]	inhibition at 100 µM [2, 4]	EC50 [1]	inhibition at 100 µM ([2]; read-out: RT % INHIBITION (100 μM))
CC(C)Nc1cccnc1N1CCN(C(=O)c2cc3ccc(N(C)C)cc3[nH]2)CC1 [Example 95, 1-[6-(N,N-Dimethylamino)indolyl-2-carbonyl]-4-[3-(1-methylethylamino)-2-pyridinyl]piperazine]	< 1 nM	81 to 93%	–	–
Cc1cccc2[nH]c(C(=O)N3CCN(c4ncccc4NC(C)C)CC3)cc12 [Example 97, 1-[4-Methylindolyl-2-carbonyl]-4-[3-(1-methylethylamino)-2pyridinyl]-piperazine]	≤ 10 nM	52 to 80%	–	–
Cc1ccc2[nH]c(C(=O)N3CCN(c4ncccc4NC(C)C)CC3)cc2c1 [Example 89, 1-[5-Methylindolyl-2-carbonyl]-4-[3-(1-methylethylamino)-2-pyridinyl]piperazine]	100 nM	61 to 74%	–	–
CC(=O)Nc1ccc2[nH]c(C(=O)N3CCN(c4ncccc4NC(C)C)CC3)cc2c1 [Example 104, 1-[5-Acetamidoindolyl-2-carbonyl]-4-[3-(1-methylethylamino)-2-pyridinyl]piperazine]	10 nM	92 to 96%	–	–
CC(C)(C)CNc1cccnc1N1CCN(C(=O)c2cc3cc(F)ccc3[nH]2)CC1 [Example 102, 1-[5-Fluoroindolyl-2-carbonyl]-4-[3-(2',2'-dimethylpropylamino)-2-pyridinyl]piperazine]	10000 nM	48%	–	–
CC(C)Nc1ccnnc1N1CCN(C(=O)c2cc3cc(F)ccc3[nH]2)CC1 [Example 50, 1-(5-Fluoroindolyl-2-carbonyl)-4-[4-(1-methylethyl)amino)-3-pyridazinyl]piperazine, methane sulfonate]	100 nM	84 to 97%	–	–
C=CCNc1cccnc1N1CCN(Cc2cc(C)c(OC)c(C)c2)CC1 [Example 116, 1-[4-Methoxy-3,4-dimethylbenzyl]-4-(3-(2-propenylamino)-2-pyridinyl]piperazine, hydrochloride]	< 10000 nM	45 to 52%	–	–
Cc1c(C(=O)N2CCN(c3ncccc3NC(C)C)CC2)[nH]c2ccccc12 [Example 73, 1-[3-methylindolyl-2-carbonyl]-4-[3-(1-methylethylamino)-2-pyridinyl]piperazine]	< 1 nM	94 to 95%	–	–
CCNc1cccnc1N1CCN(C(=O)c2cc3cc(OC)ccc3[nH]2)CC1 [Example 16, 1-[5-Methoxyindolyl-2-carbonyl]-4-[3-(ethylamino)-2-pyridinyl]piperazine]	–	85 to 88%	3 nM	–
CC(C)Nc1cccnc1N1CCN(C(=O)c2cc3cc(NS(C)(=O)=O)ccc3[nH]2)CC1 [Example 105, 1-[5-Methanesulfonamidoindolyl-2-carbonyl]-4-[3-(1-methylethylamino)-2-pyridinyl]piperazine]	≤ 1 nM	–	–	82 to 96%
CC(C)Nc1cccnc1N1CCN(C(=O)c2cc3cc(N)ccc3[nH]2)CC1 [Example 101, 1-[5-Aminoindolyl-2-carbonyl]-4-[3-(1-methylethylamino)-2-pyridinyl]-piperazine]	10 nM	93 to 96%	–	–
CC(C)Nc1cccnc1N(C)CCN(C)C(=O)c1cc2ccccc2[nH]1 [Example 52, N,N'-Dimethyl-N-(indolyl-2-carbonyl)-N'-(3-(1-methylethylamino)pyrid-2-yl)ethylenediamine]	100 to 1000 nM	89 to 94%	–	–
O=C(c1cc2ccccc2[nH]1)N1CCN(c2ncccc2N2CCCC2)CC1 [Example 76, 1-[Indolyl-2-carbonyl]-4-[3-(1-pyrrolidinyl)-2-pyridinyl]piperazine]	100 to 1000 nM	65 to 76%	–	–
CC(C)Nc1cccnc1N1CCN(C(=O)c2cc3cc(O)ccc3[nH]2)CC1 [Example 38, 1-[5-Hydroxyindolyl-2-carbonyl]-4-[3-(1-methylethylamino)-2-pyridinyl]piperazine]	< 1 nM	96 to 98%	–	–
CC(C)Nc1cccnc1N(C)CCOC(=O)c1cc2ccccc2[nH]1 [Example 55]	100 to 1000 nM	66 to 79%	–	–
CC(C)Nc1cccnc1N1CCN(C(=O)c2cc3cc(OCC(=O)O)ccc3[nH]2)CC1 [Example 61, sodium salt]	1000 nM	91%	–	–
CC(C)Nc1cncnc1N1CCN(C(=O)c2cc3cc(F)ccc3[nH]2)CC1 [Example 48, 1-(5-Fluoroindolyl-2-carbonyl)-4-[5-(1-methylethylamino)-4-pyrimidinyl]piperazine]	10 to 100 nM	63 to 92%	–	–
CNc1cccnc1N1CCN(C(=O)c2cc3cc(OC)ccc3[nH]2)CC1 [Example 64, 1-(5-Methoxyindolyl-2-carbonyl)-4-[3-(methylamino)-2-pyridinyl]piperazine]	≤ 1000 nM	88 to 94%	–	–
COc1cc2[nH]c(C(=O)N3CCN(c4ncccc4NC(C)C)CC3)cc2cc1F [Example 91, 1-[5-Fluoro-6-methoxyindolyl-2-carbonyl]-4-[3-(1-methylethylamino)-2-pyridinyl]piperazine]	100 nM	85 to 91%	–	–
O=C(c1cc2cc(F)ccc2[nH]1)N1CCN(c2ncccc2NCC(F)(F)F)CC1 [Example 34, 1-[5-Fluoroindolyl-2-carbonyl]-4-[3-(2,2,2-trifluoroethylamino)-2-pyridinyl]piperazine]	< 10000 nM	41%	–	–
CC(C)Nc1cccnc1N1CCN(C(=O)c2cc3ccc(F)cc3[nH]2)CC1 [Example 132]	1 to 10 nM	95 to 98%	–	–
CC(C)Nc1cccnc1N(C)CCCCCCN(C)C(=O)c1cc2ccccc2[nH]1 [Example 54, N,N'-Dimethyl-N-(indolyl-2-carbonyl)-N'-[3-(1-methylethyl-amino)-2-pyridinyl]-1,6-hexanediamine]	100 nM	70 to 80%	–	–
CC(C)Nc1cccnc1N(C)CCCN(C)C(=O)c1cc2ccccc2[nH]1 [Example 53, N,N'-Dimethyl-N-(indolyl-2-carbonyl)-N'-[3-(1-methylethyl-amino)-2-pyridyl]-1,3-propanediamine]	1 to 10 nM	82 to 94%	–	–
